The target of one experiment is KRAS G12D (Homo sapiens, UniProt P01116, G12D). In words: KRAS_G12D GDP-GTP exchange assay (bodipy-GDP/GppNHp, SOS1). In kind it is biochemical. To be noted: bodipy-loaded KRAS G12D 2.5 nM, 4 hours pre-incubation, 2 hours exchange; for IC50: read-out: G12D_exchange (KRAS_G12D exchange assay IC50). Here is the method: (§1) The inhibitor potency of the exemplified compounds was determined in a fluorescence based guanine nucleotide exchange assay, which measures the exchange of bodipy-GDP (fluorescently labeled GDP) for GppNHp (Non-hydrolyzable GTP analog) to generate the active state of KRAS in the presence of SOS1 (guanine nucleotide exchange factor). Inhibitors were serially diluted in DMSO and a volume of 0.1 μL was transferred to the wells of a black low volume 384-well plate. 5 μL/well volume of bodipy-loaded KRAS G12D diluted to 2.5 nM in assay buffer (25 mM Hepes pH 7.5, 50 mM NaCl, 10 mM MgCl2 and 0.01% Brij-35) was added to the plate and pre-incubated with inhibitor for 4 hours at ambient temperature. Appropriate controls (enzyme with no inhibitor or with a G12D inhibitor) were included on the plate. The exchange was initiated by the addition of a 5 μL/well volume containing 1 mM GppNHp and 300 nM SOS1 in assay buffer. The 10 μL/well reaction concentration of the bodipy-loaded KRAS G12D, GppNHp, and SOS1 were 2.5 nM, 500 uM, and 150 nM, respectively. The reaction plates were incubated at ambient temperature for 2 hours, a time estimated for complete GDP-GTP exchange in the absence of inhibitor. For the KRAS G12V mutant, similar guanine nucleotide exchange assays were used with 2.5 nM as final concentration for the bodipy loaded KRAS proteins and 3 hours incubation after adding GppNHp-SOS1 mixture. A cyclic peptide described to selectively bind G12D mutant (Sakamoto et al., BBRC 484.3 (2017), 605-611) or internal compounds with confirmed binding were used as positive controls in the assay plates. Fluorescence intensities were measured on a PheraStar plate reader instrument (BMG Labtech) with excitation at 485 nm and emission at 520 nm.
(§2) Either GraphPad prism or XLfit was used to analyze the data. The IC50 values were derived by fitting the data to a four parameter logistic equation producing a sigmoidal dose-response curve with a variable Hill coefficient. Prism equation: Y=Bottom+(Top−Bottom)/(1+10^((Log IC50−X)*Hill slope)); XLfit equation: Y=(A+((B−A)/(1+((X/C)^D)))) where X is the logarithm of inhibitor concentration and Y is the response.

The next experiment addresses KRAS G12V (Homo sapiens, UniProt P01116, G12V). In words: KRAS_G12V GDP-GTP exchange assay (bodipy-GDP/GppNHp, SOS1). To be noted: bodipy loaded KRAS G12V 2.5 nM, 3 hours incubation after GppNHp-SOS1; read-out: G12V_exchange (KRAS_G12V exchange assay IC50). In kind it is biochemical. Here is the method: as §1, §2

A value given as a limit tells only on which side of the number the result lay.

Sequence of KRAS G12D (P01116 1-188 isoform P01116-2 G12D): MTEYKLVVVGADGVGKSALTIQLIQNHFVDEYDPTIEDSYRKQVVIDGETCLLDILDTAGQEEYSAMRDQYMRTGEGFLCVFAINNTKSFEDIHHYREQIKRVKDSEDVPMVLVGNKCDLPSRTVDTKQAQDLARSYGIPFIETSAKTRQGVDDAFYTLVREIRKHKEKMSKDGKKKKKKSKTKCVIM
Sequence of KRAS G12V (P01116 1-188 isoform P01116-2 G12V): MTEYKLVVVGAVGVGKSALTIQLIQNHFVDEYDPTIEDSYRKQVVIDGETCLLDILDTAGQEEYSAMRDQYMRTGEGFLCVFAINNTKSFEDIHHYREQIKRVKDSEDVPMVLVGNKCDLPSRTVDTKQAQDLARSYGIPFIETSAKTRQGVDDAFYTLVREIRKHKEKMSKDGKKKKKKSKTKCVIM

In the case of `Cc1nc2c(F)c(-c3cc(O)cc4ccccc34)ncc2c2c1cc(CN1CCOC1=O)n2[C@@H]1[C@@H]2CN[C@H]1C2` (relative stereo) [Example 5, 3-((1-((endo)-2-azabicyclo[2.1.1]hexan-5-yl)-6-fluoro-7-(3-hydroxynaphthalen-1-yl)-4-methyl-1H-pyrrolo[3,2-c][1,6]naphthyridin-2-yl)methyl)oxazolidin-2-one], the IC50 (as a rule, the midpoint of a concentration-inhibition curve) lay in the range of 100 to 1000 nM at KRAS G12D and 1000 to 5000 nM at KRAS G12V.

Take `Cc1nc2c(nc(N3CC(N(C)C)C3)c3nc(CCC(=O)N(C)C)n([C@@H]4[C@@H]5CN[C@H]4C5)c32)c(C)c1-c1cc(O)cc2ccccc12` (relative stereo) [Example 16, 3-(1-((endo)-2-azabicyclo[2.1.1]hexan-5-yl)-4-(3-(dimethylamino)azetidin-1-yl)-7-(3-hydroxynaphthalen-1-yl)-6,8-dimethyl-1H-imidazo[4,5-c][1,5]naphthyridin-2-yl)-N,N-dimethylpropanamide]: the IC50 on KRAS G12D was in the range of 1000 to 5000 nM.

As to `C[C@H](Oc1nc2c(F)c(-c3c[nH]c4ccc(F)cc34)ncc2c2c1cc(CN1CCOC1=O)n2C1C2CNC1C2)[C@@H]1CCCN1C` (single isomer, unassigned) [Example 6a], at KRAS G12D, the IC50 lay within 100 to 1000 nM.

Take `Cc1cc2c(O[C@@H](C)[C@@H]3CCCN3C)nc3c(F)c(N4CCc5ccccc54)ncc3c2n1C1C2CNC1C2` (single isomer, unassigned) [Example 8a]: the “G12D_exchange (KRAS_G12D exchange assay IC50)” value (“G12D_exchange” for short) on KRAS G12D is “†”. The IC50 on KRAS G12V is 100 to 1000 nM.

On to `Cc1cc2c(O[C@@H](C)[C@@H]3CCCN3C)nc3c(F)c(N4CCc5ccccc54)ncc3c2n1C1C2CNC1C2` (single isomer, unassigned) [Example 8b], for which the IC50 lay within 100 to 1000 nM at KRAS G12D and 1000 to 5000 nM on KRAS G12V.

Regarding `C[C@H](Oc1nc2c(F)c(-c3cc(O)cc4ccccc34)ncc2c2c1nc(CCC(=O)N(C)C)n2C1C2CNC1C2)[C@@H]1CCCN1C` (single isomer, unassigned) [Example 9b], the “G12D_exchange” value at KRAS G12D is listed as “†”. At KRAS G12V, the IC50 is not above 100 nM.

As for `CN(C)C(=O)CCc1nc2c(N3CC(N(C)C)C3)nc3c(F)c(-c4cccc5c4C(C#N)CC5)ncc3c2n1C1C2CNC1C2` (single isomer, unassigned) [Example 10b, 3-(1-((endo)-2-azabicyclo[2.1.1]hexan-5-yl)-7-(3-cyano-2,3-dihydro-1H-inden-4-yl)-4-(3-(dimethylamino)azetidin-1-yl)-6-fluoro-1H-imidazo[4,5-c][1,6]naphthyridin-2-yl)-N,N-dimethylpropanamide], the IC50 at KRAS G12D fell in the range of 1000 to 5000 nM.

Consider `CN(C)C(=O)CCc1nc2c(N3CC(N(C)C)C3)nc3cc(-c4cc(O)cc5ccccc45)c(CCC#N)nc3c2n1C1C2CNC1C2` (single isomer, unassigned) [Example 17a, 3-(1-((endo)-2-azabicyclo[2.1.1]hexan-5-yl)-8-(2-cyanoethyl)-4-(3-(dimethylamino)azetidin-1-yl)-7-(3-hydroxynaphthalen-1-yl)-1H-imidazo[4,5-c][1,5]naphthyridin-2-yl)-N,N-dimethylpropanamide], for which the “G12D_exchange” value on KRAS G12D is recorded as “†”. On KRAS G12V, the IC50 was in the range of 1000 to 5000 nM.

As for `C[C@H](Oc1nc2c(F)c(-c3cccc4c3OCCC4)ncc2c2c1cc(C1CCc3cccc(=O)n31)n2[C@H]1[C@H]2CN[C@@H]1C2)[C@@H]1CCCN1C` (single isomer, unassigned) [Example 20a], on KRAS G12D, the “G12D_exchange” value was “†”. Also, at KRAS G12V, the IC50 was not above 100 nM.

In the case of `Cc1cc2c(O[C@@H](C)[C@@H]3CCCN3C)nc3c(F)c(-c4cc(O)cc5ccc(F)cc45)ncc3c2n1[C@H]1[C@H]2CN[C@@H]1C2` [Example 18, 4-(1-((1R,4R,5S)-2-Azabicyclo[2.1.1]hexan-5-yl)-6-fluoro-2-methyl-4-((S)-1-((S)-1-methylpyrrolidin-2-yl)ethoxy)-1H-pyrrolo[3,2-c][1,6]naphthyridin-7-yl)-6-fluoronaphthalen-2-ol], at KRAS G12D, the “G12D_exchange” value was “†”. At KRAS G12V, the IC50 is not above 100 nM.

`CC(=O)N1CCC[C@@H]1c1cc2c(O[C@@H](C)[C@@H]3CCCN3C)nc3c(F)c(-c4cccc5scnc45)ncc3c2n1[C@H]1[C@H]2CN[C@@H]1C2` [Example 19, 1-((R)-2-(7-(Benzo[d]thiazol-4-yl)-1-((1R,4R,5S)-2-azabicyclo[2.1.1]hexan-5-yl)-6-fluoro-4-((S)-1-((S)-1-methylpyrrolidin-2-yl)ethoxy)-1H-pyrrolo[3,2-c][1,6]naphthyridin-2-yl)pyrrolidin-1-yl)ethan-1-one]: at KRAS G12D, the “G12D_exchange” value was “†”. The IC50 on KRAS G12V was not above 100 nM.

In the case of `C[C@H](Oc1nc2c(F)c(-c3cccc4c3OCCC4)ncc2c2c1cc([C@@H](C)n1ccccc1=O)n2[C@H]1[C@H]2CN[C@@H]1C2)[C@@H]1CCCN1C` [Example 21, 1-((R)-1-(1-((1R,4R,5S)-2-Azabicyclo[2.1.1]hexan-5-yl)-7-(chroman-8-yl)-6-fluoro-4-((S)-1-((S)-1-methylpyrrolidin-2-yl)ethoxy)-1H-pyrrolo[3,2-c][1,6]naphthyridin-2-yl)ethyl)pyridin-2(1H)-one], at KRAS G12D, the “G12D_exchange” value is “†”. The IC50 on KRAS G12V was not above 100 nM.

In the case of `COC(=O)N1CCC[C@@H]1c1cc2c(N3CC(C)(N(C)C)C3)nc3c(F)c(-c4cccc(Cl)c4Cl)ncc3c2n1[C@H]1[C@H]2CN[C@@H]1C2` [Example 22, Methyl (R)-2-(1-((1R,4R,5S)-2-azabicyclo[2.1.1]hexan-5-yl)-7-(2,3-dichlorophenyl)-4-(3-(dimethylamino)-3-methylazetidin-1-yl)-6-fluoro-1H-pyrrolo[3,2-c][1,6]naphthyridin-2-yl)pyrrolidine-1-carboxylate], on KRAS G12D, the “G12D_exchange” value is on record as “†”. Also, the IC50 on KRAS G12V is 100 to 1000 nM.

Take `COC(=O)N1CCC[C@@H]1c1cc2c(O[C@@H](C)[C@@H]3CCCN3C)nc3c(F)c(-c4cccc(Cl)c4Cl)ncc3c2n1[C@H]1[C@H]2CN[C@@H]1C2` [Example 23, Methyl (R)-2-(1-((1R,4R,5S)-2-azabicyclo[2.1.1]hexan-5-yl)-7-(2,3-dichlorophenyl)-6-fluoro-4-((S)-1-((S)-1-methylpyrrolidin-2-yl)ethoxy)-1H-pyrrolo[3,2-c][1,6]naphthyridin-2-yl)pyrrolidine-1-carboxylate]: at KRAS G12D, the “G12D_exchange” value was “†”. Further, the IC50 at KRAS G12V is not above 100 nM.

Take `CNC(=O)c1cccc(-c2nc3c(F)c(-c4cccc(C)c4Cl)ncc3c3c2cc([C@H]2CCCN2C(=O)OC)n3[C@H]2[C@H]3CN[C@@H]2C3)n1` [Example 24, Methyl (R)-2-(1-((1R,4R,5S)-2-azabicyclo[2.1.1]hexan-5-yl)-7-(2-chloro-3-methylphenyl)-6-fluoro-4-(6-(methylcarbamoyl)pyridin-2-yl)-1H-pyrrolo[3,2-c][1,6]naphthyridin-2-yl)pyrrolidine-1-carboxylate]: the “G12D_exchange” value at KRAS G12D is reported as “†”. Besides, the IC50 at KRAS G12V was in the range of 5000 to 10000 nM.
